This is an account of results in patent US8017144B2, “Controlled release polymeric compositions of bone growth promoting compounds” (Pfizer Inc., priority 2001, dated 2011).

Several values for one entry are separate records, joined by “and”; a condition that tells them apart may be missing. Identical values can stand only once.

One test concerns right femoral fracture. The test is described as follows: Rat femoral transverse fracture model. The settings on record: single percutaneous injection to fracture site immediately after surgery; 50 mg/ml, 300 ul, 15 mg/rat; day 21. It counts as in vivo, Male Sprague-Dawley rats. As for the experimental part:
Male Sprague-Dawley rats at 3 to 4 months of age were used. The animals were anesthetized with ketamine and xylazine at doses of 100 and 10 mg/kg, respectively. The right hindlimb of each rat was shaved and cleaned. A 1 cm incision was made just lateral to the patella and the femoral condyle was exposed. A Kirschner wire (0.045″ in diameter) was introduced into the intramedullary canal through the intercondylar portion to serve as an internal stabilization. The muscle incision was closed with Vicryl® and the skin incision was closed with stainless steel wound clips. The mid-diaphysis of the pinned femur was fractured by means of a three-point bending device driven by a dropped weight. The rats were permitted full weight-bearing and unrestricted activity after awakening from anesthesia. The test agents were administered on various days after surgery by percutaneous injection onto the fracture site. The animals were sacrificed on various days after treatment and the femurs were collected for analysis. Fracture healing was evaluated by using radiography, histomorphometry and biomechanical test. (See, e.g., F. Bonnarens and T. A. Einhorn, “Production of a standard closed fracture in laboratory animal bone,” Journal of Orthopaedic Research 2:97-101 (1984).)
Male Sprague-Dawley rats at 3 to 4 months of age were subjected to right femoral fracture. […]

In test [1] the test system is 1.5 cm segmental defect in the midulna. The test is described as follows: Dog ulnar segmental defect model. It counts as in vivo, dogs. An excerpt: The ulnar segmental defect model was used to test the efficacy of a single dose of the test compound (which was the sodium salt of (3-(((4-tert-butyl-benzyl)-(pyridine-3-sulfonyl)-amino)-methyl)-phenoxy)-acetic acid) in a PLGH formulation ([…]). The protocol was modified as follows: With animals under general anesthesia, the foreleg was prepped and draped in sterile fashion. A lateral incision approximately 10 cm in length was made and the ulna was exposed extraperiostally. Periosteum was cut and moved to the proximal and distal parts of the incision. Then a 1.5 cm segmental defect was made in the midulna using a pendular saw. The radius and the remaining interosseal membrane were left intact. The defect site was irrigated with saline to remove bone debris. The site was then filled with test compound in a slow-release matrix formulation, as described above. The dogs were divided into the following groups.
Radiographs of the forelimbs were obtained immediately following surgery and every two weeks thereafter until the termination of the study. Radiographs were graded on a 0 to 6 scale (Table 2).

For test [2], the system named is osteotomy on the distal portion of the dog tibia. The test is described as follows: Canine tibial osteotomy model. It is filed as in vivo, Beagle male dogs. The settings on record: RG502H/NMP, 8 weeks, sodium salt. An excerpt: Normal fracture healing usually represents a biologically optimum healing process, as a result detecting an acceleration of healing in pre-clinical models that heal rapidly is both difficult and challenging. The test compound (which was the sodium salt of (3-(((4-tert-butyl-benzyl)-(pyridine-3-sulfonyl)-amino)-methyl)-phenoxy)-acetic acid) in a PLGH formulation (50% 50:50 PLGH (RG502H Grade)/50% NMP) was studied to determine its effect on accelerating healing in a rapidly healing canine osteotomy model. Enhancement of healing in this model supports potential applications of the test compound to heal normal fractures in humans since humans tend to heal fractures more slowly.
Beagle male dogs 12±3 kg, 14 months of age were used for the study. Dogs were divided into four groups of three to four animals each.
With animals under general anesthesia, the hindleg was prepped and draped in sterile fashion. A lateral incision approximately 4 cm in length was made. Surgical osteotomy was made on the distal portion of the dog tibia using a Gigli saw. The defect was stabilized using an AO plate. The fibula and the remaining interosseal membrane was left intact and the defect site was irrigated with saline to remove bone debris. The site was then filled with carrier as described above. Following surgery, animals were allowed full weight-bearing activity, and water and food ad libitum. […]

In test [3] the test system is subperiosteum of the femur. Description: Rat periosteal injection model. The following applies: single injection in a polymer formulation, day 15. It counts as in vivo, Male Sprague-Dawley rats. How it is done:
Male Sprague-Dawley rats at 3 weeks of age were used. The rats were anesthetized with isoflurane inhalation ([…]) in a conduction chamber located in a fume hood. The right hindlimb of each rat was shaved and cleaned. A 25 G needle attached with a Hamilton syringe pre-filled with testing solution was used for the local injection. The solution was injected onto the subperiosteum of the anterior, mid-diaphyseal region of femur in a volume of 5 to 10 ul for various days. On day 15, the rats were sacrificed and the femurs were collected for analysis. (See, e.g., M. E. Joyce, A. B. Roberts, M. B. Sporn and M. Bolander, “Transforming growth factor-β and the initiation of chondrogenesis and osteogenesis in the rat femur,” The Journal of Cell Biology 110:2195-2207 (1990).) On day one, the right femurs of male Sprague-Dawley rats received single injection of vehicle or test compound in a polymer formulation. The test compound was the sodium salt of (3-(((4-tert-butyl-benzyl)-(pyridine-3-sulfonyl)-amino)-methyl)-phenoxy)-acetic acid. On day 15, all rats were sacrificed and the right femurs were collected for analysis. Periosteal bone induction was assessed by using radiography and dual-energy X-ray absorptiometry (DEXA).

`CC(C)(C)c1ccc(CN(Cc2cccc(OCC(=O)[O-])c2)S(=O)(=O)c2cccnc2)cc1.[Na+]` [test compound, (3-(((4-tert-butyl-benzyl)-(pyridine-3-sulfonyl)-amino)-methyl)-phenoxy)-acetic acid, sodium salt]: the “calluses as assessed by radiography vs vehicle” value in the test on right femoral fracture was “larger and denser calluses”. For the same compound, the “efficacy in formulation containing RG503H Grade” value in test [1] (50 mg/ml in 50% 50:50 PLGH (RG503H Grade)/50% NMP) is reported as “did not work well”. The “union compared to RG502H Grade formulation” value in test [1] (50 mg/ml in 50% 50:50 PLGH (RG503H Grade)/50% NMP, union achieved in some dogs) is reported as “delayed”. Further, in test [1] (all treated groups vs none for vehicle controls), the “treated animals healed, overall” value was 70-75%. The “remodeling of newly formed bone” value in test [1] (by week 24, slow release matrix formulation RG502H/NMP) was “remodeled back to the same shape and size as the contralateral bone”. Moreover, the “Complete rebridging/number of dogs” value is on record as 2/4 in test [1] (group B: 50 mg (1 ml of 50 mg/ml formulation), RG502H/NMP); 9/12 in test [1] (group C: 10 mg (1 ml of 10 mg/ml formulation), RG502H/NMP); 3/4 in test [1] (group D: 10 mg (0.2 ml of 50 mg/ml formulation), RG502H/NMP). For the same compound, in test [1] (group C: 10 mg (1 ml of 10 mg/ml formulation), RG502H/NMP, two dogs), the Radiographic response result was “did not respond”. The “rebridgement of defect after a single application” value in test [1] (groups B, C and D, slow release matrix formulation RG502H/NMP) is “complete rebridgement”. In addition, the Rebridging/number of dogs entry in test [2] (group C: 5 mg (0.5 ml of 10 mg/ml formulation)) is “Four out of four and 4/4”; in test [2] (group D: 25 mg (0.5 ml of 50 mg/ml formulation)), “the other three showed significant healing and 3/4”. Also, the “bone mineral content (BMC) of the injected region of the femur by DEXA vs vehicle” value in test [3] is on record as “significantly increased”. In addition, the “periosteal bone induction by radiography” value in test [3] (anterior aspect of right femur) is “new bone formation”.
